Test results: patent publication US8614182B2 (Jiangsu Hansoh Pharmaceuticals Co., Ltd., priority 2009, dated 2013)
Non-standard residues stand in square brackets, D forms with d. Residues, ends and D or L forms follow the SMILES beside them. *: point of attachment. εLys(Nα-Palmitoyl) = CCCCCCCCCCCCCCCC(=O)N[C@@H](CCCCN*)C(=O)O; Aib = CC(C)(N)C(=O)O

How the values were obtained:
[1] = molecular target: T1, Glucagon-like peptide-1 receptor (GLP1R) (Homo sapiens, UniProt P43220); test: Agonist activity on GLP1R, cAMP response element luciferase reporter gene in HEK293 cells; format: cell-based; details: HEK293 cells stably transfected with GLP1R and pCRE-Luc, 5 hours incubation; read-out: Maximum reaction rate
T1 construct: expressed in transfected cells; host or cells: HEK293
T1 sequence (P43220 24-463, species assumed): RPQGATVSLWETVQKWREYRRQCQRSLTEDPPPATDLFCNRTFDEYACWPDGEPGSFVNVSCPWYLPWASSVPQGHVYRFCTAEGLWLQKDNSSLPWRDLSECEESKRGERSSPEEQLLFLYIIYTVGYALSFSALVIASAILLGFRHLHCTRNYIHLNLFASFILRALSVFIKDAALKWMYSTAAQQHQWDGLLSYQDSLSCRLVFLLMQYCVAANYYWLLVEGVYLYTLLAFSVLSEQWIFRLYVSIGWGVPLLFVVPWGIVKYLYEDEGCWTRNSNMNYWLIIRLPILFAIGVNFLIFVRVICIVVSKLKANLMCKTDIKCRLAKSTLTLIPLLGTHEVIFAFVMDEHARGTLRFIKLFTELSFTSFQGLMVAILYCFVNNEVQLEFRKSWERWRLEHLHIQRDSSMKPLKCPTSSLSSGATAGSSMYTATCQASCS
Source text: GLP1R is a receptor coupled with Gs protein, of which the binding with the agonists will result in an increase of intracellular cAMP concentration. In the present experiment, GLP1R and the luciferase reporter gene plasmid regulated by cAMP response elements are co-transfected into HEK293 cells. When the compound binds to the receptor and activates the receptors, the expression of the luciferase will increase. The activation status of the compound to GLP1R can be learned by testing the activity of the luciferase.
2. The compounds or positive drugs having a certain concentration gradient were added (3 wells per concentration) and incubated at 37° C. for 5 hours. The negative control was solvent DMSO.
3. 50 μl culture medium was taken from each well, and 50 μl of the luciferase substrate were added and vortexed for 10 minutes.
4. 80 μl reaction solution was taken and transferred to a white 96 well plate, then detected on the Invision microplate reader (enzyme-labelling measuring instrument).

[2] = test system: db/db mice with type 2 diabetes; test: Random blood glucose of db/db mice after single subcutaneous injection; format: in vivo; details: for random blood glucose: n = 8; for decrease rate of random blood glucose: versus control group
Method: db/db mice with type 2 diabetes were divided into six groups based on a random blood glucose and body weight (8 per group). […] The random blood glucose of the mice is determined at differete time after administration.
Preparation method: 1 bottle of the compound (2 mg/bottle) was dissolved with double-distilled water to prepare a colorless and transparent solution of which the concentration is 2 mg/mL. […] “ACCU-CHEK® Advantage” blood glucose meter form Roche was used to determine the blood glucose.
Route and volume of administration: Single subcutaneous injection dose, dose volume was 5 mL/kg. […]
The random blood glucoses of db/db mice were measured.
Each group has 8 mice, half male and half female. The animals of each group were administered with the test compounds or solvent control respectively through single subcutaneous injection.

[3] = cited from earlier work

CCCCCCCCCCCCCCCC(=O)N[C@@H](CCCCNC(=O)[C@H](CO)NC(=O)[C@@H]1CCCN1C(=O)[C@@H]1CCCN1C(=O)[C@@H]1CCCN1C(=O)[C@H](C)NC(=O)CNC(=O)[C@H](CO)NC(=O)[C@H](CO)NC(=O)[C@@H]1CCCN1C(=O)CNC(=O)CNC(=O)[C@H](CCCNC(=N)N)NC(=O)[C@@H](NC(=O)[C@H](CC(C)C)NC(=O)[C@H](Cc1c[nH]c2ccccc12)NC(=O)[C@H](C)NC(=O)[C@@H](NC(=O)[C@H](Cc1ccccc1)NC(=O)[C@H](CCC(=O)O)NC(=O)[C@H](CCCCN)NC(=O)[C@H](C)NC(=O)[C@H](C)NC(=O)[C@H](CCC(=O)O)NC(=O)[C@H](CCC(=O)O)NC(=O)[C@H](CCC(=O)O)NC(=O)[C@H](CC(C)C)NC(=O)[C@H](Cc1ccc(O)cc1)NC(=O)[C@H](CO)NC(=O)[C@H](CO)NC(=O)[C@@H](NC(=O)[C@H](CC(=O)O)NC(=O)[C@H](CO)NC(=O)[C@@H](NC(=O)[C@H](Cc1ccccc1)NC(=O)[C@@H](NC(=O)CNC(=O)[C@H](CCC(=O)O)NC(=O)C(C)(C)NC(=O)[C@@H](N)Cc1c[nH]cn1)[C@@H](C)O)[C@@H](C)O)C(C)C)[C@@H](C)CC)C(C)C)C(=O)O [HS-20004] (H-H[Aib]EGTFTSDVSSYLEEEAAKEFIAWLVRGGPSSGAPPPS-{εLys(Nα-Palmitoyl)}; N-terminus and C-terminus assumed)
Emax [1]: 90.8%
random blood glucose ([2]; 3 μg/kg single s.c., 1 h after administration, X ± s): 20.11 ± 1.28 mmol/L
decrease rate of random blood glucose ([2]; 3 μg/kg single s.c., 1 h after administration): 15.00%
decrease rate of random blood glucose ([2]; 3 μg/kg single s.c., 1 h after administration, listed as 20004): 15.00%
random blood glucose ([2]; 3 μg/kg single s.c., 2 h after administration, X ± s): 18.81 ± 1.50 mmol/L
decrease rate of random blood glucose ([2]; 3 μg/kg single s.c., 2 h after administration): 16.85%
random blood glucose ([2]; 3 μg/kg single s.c., 4 h after administration, X ± s): 17.98 ± 1.38 mmol/L
decrease rate of random blood glucose ([2]; 3 μg/kg single s.c., 4 h after administration): 18.30%
random blood glucose ([2]; 3 μg/kg single s.c., 8 h after administration, X ± s): 23.30 ± 1.47 mmol/L
decrease rate of random blood glucose ([2]; 3 μg/kg single s.c., 8 h after administration): 8.22%
random blood glucose values compared with those of the control group ([2]; 3 μg/kg single s.c., after 2 h and 4 h, P<0.05): kept a lower level and had significant difference
random blood glucose values compared with those of the control group ([2]; 3 μg/kg single s.c., after 8 hours): no significant difference
random blood glucose values compared with those of the control group ([2]; 3 μg/kg single s.c., after one hour, P<0.05): decreased significantly
random blood glucose ([2]; 3 μg/kg single s.c., before administration, X ± s): 25.11 ± 1.63 mmol/L
decrease rate of random blood glucose ([2]; 10 μg/kg single s.c., 1 h after administration): 36.20%
random blood glucose ([2]; 10 μg/kg single s.c., 1 h after administration, ± s): 19.63 ± 1.81 mmol/L
decrease rate of random blood glucose ([2]; 10 μg/kg single s.c., 2 h after administration): 27.82%
random blood glucose ([2]; 10 μg/kg single s.c., 2 h after administration, ± s): 21.86 ± 1.66 mmol/L
decrease rate of random blood glucose ([2]; 10 μg/kg single s.c., 4 h after administration): 28.30%
random blood glucose ([2]; 10 μg/kg single s.c., 4 h after administration, ± s): 21.44 ± 1.68 mmol/L
decrease rate of random blood glucose ([2]; 10 μg/kg single s.c., 8 h after administration): 23.32%
random blood glucose ([2]; 10 μg/kg single s.c., 8 h after administration, ± s): 23.80 ± 1.46 mmol/L
decrease rate of random blood glucose ([2]; 10 μg/kg single s.c., 24 h after administration): 11.52%
random blood glucose ([2]; 10 μg/kg single s.c., 24 h after administration, ± s): 25.64 ± 1.85 mmol/L
random blood glucose values compared with those of the control group ([2]; 10 μg/kg single s.c., after 4 h and 8 h): still kept at a lower level
random blood glucose values compared with those of the control group ([2]; 10 μg/kg single s.c., after 24 hours): not significantly different
random blood glucose ([2]; 10 μg/kg single s.c., before administration, ± s): 23.18 ± 1.65 mmol/L
random blood glucose values compared with those of the control group ([2]; 10 μg/kg single s.c., time not specified): decreased immediately and significantly
effect on reducing random blood glucose compared within the series ([2]; single s.c.): much better effect
random blood glucose level (words, test conclusions) ([2]; single s.c., dose of 3 μg/kg (so in the source)): decreased obviously

glucagon-like peptide-1 [GLP-1]
in vivo half-life [3]: about 2 minutes
